# In patent US10758534B2 (Vertex Pharmaceuticals Incorporated, priority 2014, dated 2020):
# Molecular target: T1, F508del (Homo sapiens, UniProt P13569, DEL508-508)
# T1 construct: expressed in transfected cells
# Experiment: Protocol 2: FRET membrane potential optical assay (VIPR), identification of correction compounds
# Assay type: cell-based
# Details: F508del CFTR modulator activity; compounds of Table 1; read-out: EC30
# Outline: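 NIH3T3 mouse fibroblasts stably expressing F508del-CFTR incubated with compound 16 h at 37 °C in serum-free medium, then loaded with CC2-DMPE/DiSBAC2(3) FRET dyes. Channel activated with 10 μM forskolin plus 20 μM genistein in Cl⁻-free (gluconate) bath; depolarisation from Cl⁻ efflux read on VIPR II.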
# T1 sequence (P13569 with tags, fused parts or gaps DEL508-508): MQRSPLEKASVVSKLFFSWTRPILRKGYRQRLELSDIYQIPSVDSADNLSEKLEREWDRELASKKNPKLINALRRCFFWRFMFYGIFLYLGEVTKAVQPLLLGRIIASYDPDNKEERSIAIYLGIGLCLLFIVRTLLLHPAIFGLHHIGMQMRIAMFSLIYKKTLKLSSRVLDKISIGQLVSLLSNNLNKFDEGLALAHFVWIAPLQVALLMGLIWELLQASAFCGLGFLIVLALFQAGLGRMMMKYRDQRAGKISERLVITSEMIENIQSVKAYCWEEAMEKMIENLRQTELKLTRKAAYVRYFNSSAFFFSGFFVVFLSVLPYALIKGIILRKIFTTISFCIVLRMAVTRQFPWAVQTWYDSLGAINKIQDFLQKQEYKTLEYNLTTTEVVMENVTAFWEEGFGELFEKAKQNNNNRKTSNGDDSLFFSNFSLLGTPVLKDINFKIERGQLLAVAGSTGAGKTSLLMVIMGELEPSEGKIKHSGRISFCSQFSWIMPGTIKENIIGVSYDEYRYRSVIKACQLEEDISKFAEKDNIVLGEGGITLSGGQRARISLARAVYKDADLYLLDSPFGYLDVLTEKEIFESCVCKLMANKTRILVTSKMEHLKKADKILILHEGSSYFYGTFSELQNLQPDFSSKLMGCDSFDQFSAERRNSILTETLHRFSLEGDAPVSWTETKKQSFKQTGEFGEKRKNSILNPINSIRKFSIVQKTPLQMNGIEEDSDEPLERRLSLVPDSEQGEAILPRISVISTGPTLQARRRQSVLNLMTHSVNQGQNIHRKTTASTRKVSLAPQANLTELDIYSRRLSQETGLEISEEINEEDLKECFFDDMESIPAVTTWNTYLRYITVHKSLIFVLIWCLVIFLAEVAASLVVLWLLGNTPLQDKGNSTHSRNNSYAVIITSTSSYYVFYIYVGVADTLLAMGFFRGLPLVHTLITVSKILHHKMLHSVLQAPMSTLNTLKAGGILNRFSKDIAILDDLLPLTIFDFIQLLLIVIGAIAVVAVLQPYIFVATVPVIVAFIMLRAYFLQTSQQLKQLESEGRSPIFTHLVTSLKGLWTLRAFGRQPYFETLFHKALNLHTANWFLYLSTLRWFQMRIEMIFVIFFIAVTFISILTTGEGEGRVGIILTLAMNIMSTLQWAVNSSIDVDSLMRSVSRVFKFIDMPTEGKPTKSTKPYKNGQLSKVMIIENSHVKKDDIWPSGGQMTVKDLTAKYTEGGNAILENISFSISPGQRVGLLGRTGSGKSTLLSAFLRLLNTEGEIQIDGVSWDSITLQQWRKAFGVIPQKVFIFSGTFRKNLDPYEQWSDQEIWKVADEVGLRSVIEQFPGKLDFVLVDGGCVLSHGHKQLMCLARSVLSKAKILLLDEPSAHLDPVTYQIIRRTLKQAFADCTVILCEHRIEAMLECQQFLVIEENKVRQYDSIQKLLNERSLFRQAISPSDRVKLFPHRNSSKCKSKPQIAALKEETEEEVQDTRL
row,Structure (SMILES),EC30
1,"Cc1ccc(-c2ccc(C(=O)NS(=O)(=O)c3ccc[nH]c3=O)c(N3C[C@@H](C)CC3(C)C)n2)cc1 [Compound 2438, N-[(2-oxo-1H-pyridin-3-yl)sulfonyl]-6-(p-tolyl)-2-[(4S)-2,2,4-trimethylpyrrolidin-1-yl]pyridine-3-carboxamide]",< 3 µM
2,"COC(=O)C1CCN(c2cccc(S(=O)(=O)NC(=O)c3cccnc3N3CC(C)CC3(C)C)n2)CC1 (stereo not shown) [Compound 2442, methyl 1-[6-[[2-(2,2,4-trimethylpyrrolidin-1-yl)pyridine-3-carbonyl]sulfamoyl]-2-pyridyl]piperidine-4-carboxylate]",3 to 10 µM
3,"CC1CN(c2ncccc2C(=O)NS(=O)(=O)c2cccc(Oc3cccc(N(C)C)c3)n2)C(C)(C)C1 (stereo not shown) [Compound 2443, N—[[6-[3-(dimethylamino)phenoxy]-2-pyridyl]sulfonyl]-2-(2,2,4-trimethylpyrrolidin-1-yl)pyridine-3-carboxamide]",< 3 µM
4,"COc1ncc(-c2ccc(C(=O)NS(=O)(=O)c3ccc[nH]c3=O)c(N3C[C@@H](C)CC3(C)C)n2)cc1F [Compound 2444, 6-(5-fluoro-6-methoxy-3-pyridyl)-N-[(2-oxo-1H-pyridin-3-yl)sulfonyl]-2-[(4S)-2,2,4-trimethylpyrrolidin-1-yl]pyridine-3-carboxamide]",3 to 10 µM
5,"C[C@@H]1CN(c2nc(-c3cccc(F)c3O)ccc2C(=O)NS(=O)(=O)c2cccnc2N)C(C)(C)C1 [Compound 2446, N-[(2-amino-3-pyridyl)sulfonyl]-6-(3-fluoro-2-hydroxy-phenyl)-2-[(4S)-2,2,4-trimethylpyrrolidin-1-yl]pyridine-3-carboxamide]",< 3 µM
6,"CC(C)COc1ccccc1-c1ccc(C(=O)NS(=O)(=O)c2cccnc2N)c(N2C[C@@H](C)CC2(C)C)n1 [Compound 2448, N-[(2-amino-3-pyridyl)sulfonyl]-6-(2-isobutoxyphenyl)-2-[(4S)-2,2,4-trimethylpyrrolidin-1-yl]pyridine-3-carboxamide]",< 3 µM
7,"COc1ccc(-c2ccc(C(=O)NS(=O)(=O)c3cccnc3N)c(N3C[C@@H](C)CC3(C)C)n2)c(C)c1C [Compound 2450, N-[(2-amino-3-pyridyl)sulfonyl]-6-(4-methoxy-2,3-dimethyl-phenyl)-2-[(4S)-2,2,4-trimethylpyrrolidin-1-yl]pyridine-3-carboxamide]",< 3 µM
8,"Cc1cc(-c2ccc(C(=O)NS(=O)(=O)c3ccc[nH]c3=O)c(N3C[C@@H](C)CC3(C)C)n2)ccc1F [Compound 2456, 6-(4-fluoro-3-methyl-phenyl)-N-[(2-oxo-1H-pyridin-3-yl)sulfonyl]-2-[(4S)-2,2,4-trimethylpyrrolidin-1-yl]pyridine-3-carboxamide]",< 3 µM
9,"COc1c(F)cc(-c2ccc(C(=O)NS(=O)(=O)c3cccnc3N)c(N3C[C@@H](C)CC3(C)C)n2)cc1F [Compound 2457, N-[(2-amino-3-pyridyl)sulfonyl]-6-(3,5-difluoro-4-methoxy-phenyl)-2-[(4S)-2,2,4-trimethylpyrrolidin-1-yl]pyridine-3-carboxamide]",< 3 µM
10,"CC[C@H](C)COc1ccn(-c2ccc(C(=O)NS(=O)(=O)c3cccnc3N)c(N3C[C@@H](C)CC3(C)C)n2)n1 [Compound 2458, N-[(2-amino-3-pyridyl)sulfonyl]-6-[3-[(2S)-2-methylbutoxy]pyrazol-1-yl]-2-[(4S)-2,2,4-trimethylpyrrolidin-1-yl]pyridine-3-carboxamide]",< 3 µM

# More lines, now with the values ahead:
row,EC30,Structure (SMILES)
1,< 3 µM,"C[C@@H]1CN(c2nc(-c3ccc(F)cc3)ccc2C(=O)NS(=O)(=O)c2cccnc2N)C(C)(C)C1 [Compound 2435, N-[(2-amino-3-pyridyl)sulfonyl]-6-(4-fluorophenyl)-2-[(4S)-2,2,4-trimethylpyrrolidin-1-yl]pyridine-3-carboxamide]"
2,< 3 µM,"COc1cccc(-c2ccc(C(=O)NS(=O)(=O)c3cccnc3N)c(N3C[C@@H](C)CC3(C)C)n2)c1OC [Compound 2436, N-[(2-amino-3-pyridyl)sulfonyl]-6-(2,3-dimethoxyphenyl)-2-[(4S)-2,2,4-trimethylpyrrolidin-1-yl]pyridine-3-carboxamide]"
3,< 3 µM,"C[C@@H]1CN(c2nc(-c3ccccc3C#N)ccc2C(=O)NS(=O)(=O)c2cccnc2N)C(C)(C)C1 [Compound 2437, N-[(2-amino-3-pyridyl)sulfonyl]-6-(2-cyanophenyl)-2-[(4S)-2,2,4-trimethylpyrrolidin-1-yl]pyridine-3-carboxamide]"
4,< 3 µM,"CC1CN(c2ncccc2C(=O)NS(=O)(=O)c2cccc(N[C@H]3CC[C@H](NC(=O)OC(C)(C)C)CC3)n2)C(C)(C)C1 (stereo partly shown) [Compound 2439, tert-butyl N—[4-[[6-[[2-(2,2,4-trimethylpyrrolidin-1-yl)pyridine-3-carbonyl]sulfamoyl]-2-pyridyl]amino]cyclohexyl]carbamate]"
5,< 3 µM,"COc1cc(-c2ccc(C(=O)NS(=O)(=O)c3ccc[nH]c3=O)c(N3C[C@@H](C)CC3(C)C)n2)ccc1C [Compound 2440, 6-(3-methoxy-4-methyl-phenyl)-N-[(2-oxo-1H-pyridin-3-yl)sulfonyl]-2-[(4S)-2,2,4-trimethylpyrrolidin-1-yl]pyridine-3-carboxamide]"
6,3 to 10 µM,"CC1CN(c2ncccc2C(=O)NS(=O)(=O)c2cccc(Oc3ccc(-n4ccnc4)cc3)n2)C(C)(C)C1 (stereo not shown) [Compound 2441, N—[[6-(4-imidazol-1-ylphenoxy)-2-pyridyl]sulfonyl]-2-(2,2,4-trimethylpyrrolidin-1-yl)pyridine-3-carboxamide]"
7,< 3 µM,"C[C@@H]1CN(c2nc(-c3ccccc3)ccc2C(=O)NS(=O)(=O)c2ccc[nH]c2=O)C(C)(C)C1 [Compound 2445, N-[(2-oxo-1H-pyridin-3-yl)sulfonyl]-6-phenyl-2-[(4S)-2,2,4-trimethylpyrrolidin-1-yl]pyridine-3-carboxamide]"
8,< 3 µM,"C[C@@H]1CN(c2nc(-c3ccc(F)cc3F)ccc2C(=O)NS(=O)(=O)c2cccnc2N)C(C)(C)C1 [Compound 2447, N-[(2-amino-3-pyridyl)sulfonyl]-6-(2,4-difluorophenyl)-2-[(4S)-2,2,4-trimethylpyrrolidin-1-yl]pyridine-3-carboxamide]"
9,< 3 µM,"CC1CN(c2ncccc2C(=O)NS(=O)(=O)c2cccc(Nc3cnc4ccccc4c3)n2)C(C)(C)C1 (stereo not shown) [Compound 2449, N—[[6-(3-quinolylamino)-2-pyridyl]sulfonyl]-2-(2,2,4-trimethylpyrrolidin-1-yl)pyridine-3-carboxamide]"
10,< 3 µM,"CC1CN(c2ncccc2C(=O)NS(=O)(=O)c2cccc(OCCC3CCNCC3)n2)C(C)(C)C1 (stereo not shown) [Compound 2452, N—[[6-[2-(4-piperidyl)ethoxy]-2-pyridyl]sulfonyl]-2-(2,2,4-trimethylpyrrolidin-1-yl)pyridine-3-carboxamide]"
11,< 3 µM,"CC1CN(c2ncccc2C(=O)NS(=O)(=O)c2cccc(N3CCC(F)CC3)n2)C(C)(C)C1 (stereo not shown) [Compound 2453, N—[[6-(4-fluoro-1-piperidyl)-2-pyridyl]sulfonyl]-2-(2,2,4-trimethylpyrrolidin-1-yl)pyridine-3-carboxamide]"
12,3 to 10 µM,"COc1ncccc1-c1ccc(C(=O)NS(=O)(=O)c2ccc[nH]c2=O)c(N2C[C@@H](C)CC2(C)C)n1 [Compound 2454, 6-(2-methoxy-3-pyridyl)-N-[(2-oxo-1H-pyridin-3-yl)sulfonyl]-2-[(4S)-2,2,4-trimethylpyrrolidin-1-yl]pyridine-3-carboxamide]"
